We go through 3 compounds from patent US20260216239A1 (Arizona Board of Regents on Behalf of the University of …, priority 2020, published 2026).

“Also recorded” adds a separate entry of the source.

The experiment relates to Pseudonaja textilis venom. In words: Thrombelastography in human plasma of venom procoagulant activity after isolated exposure of venom to compounds. It is filed as biochemical. To be noted: for maximum rate of thrombus generation (MRTG) / total thrombus generation (TTG), clot strength: 100 μM CORM-3, 100 μM RuCl3 or both; for maximum rate of thrombus generation (MRTG) / total thrombus generation (TTG), clot strength / time to maximum rate of thrombus generation (TMRTG): venom 0.1 μg/ml in plasma; for time to maximum rate of thrombus generation (TMRTG): venom exposed 5 min in PBS to 100 μM CORM-3, 100 μM RuCl3 or both. How it is done:
[…] A sample of each of these venom mixtures was then placed into human plasma (0.1 μg/ml final concentration of venom), with coagulation determined by thrombelastography until final clot strength stabilized.
All venom solutions without or with chemical additions in isolation were added as a 1% addition to the plasma mix used in our thrombelastographic system (see, Nielsen, V. G.; et al., Biometals 2016, 29, 913-919; Nielsen, V. G.; Losada, P. A. Basic Clin. Pharmacol. Toxicol. 2017, 120, 207-212; Nielsen, V. G.; Frank, N. J. Thromb. Thrombolysis 2019, 47, 533-539; Nielsen, V. G.; Bazzell, C. M. J. Thromb. Thrombolysis 2017, 43, 203-208; Nielsen, V. G.; Matika, R. W. Hum. Exp. Toxicol. 2017, 36, 727-733; Nielsen, V. G.; et al., Toxins 2018, 10, 322; Nielsen, V. G.; et al., Biometals 2018, 31, 51-59; Nielsen, V. G.; Frank, N. et al., Biometals 2018, 31, 951-959; Nielsen, V. G.; et al., Toxins 2019, 11, 94; Nielsen, V. G.; Frank, N. Hum Exp. Toxicol. 2019, 38, 216-226; Nielsen, V. G. J. Thromb. Thrombolysis 2019, 48, 256-262; Nielsen, V. G.; et al., Blood Coagul. Fibrinolysis 2019, 30, 379-384; Nielsen, V. G. J. Thromb. Thrombolysis 2019, 47, 73-79; Gessner, G.; et al., Eur. J. Pharmacol. 2017, 815, 33-41). […] The thrombelastographic model describes coagulation kinetics with the following three variables: time to maximum thrombus generation (TMRTG, minutes—a measure of time to onset of coagulation), maximum rate of thrombus generation (MRTG, dynes/cm^2/s—a measure of the velocity of clot growth) and total thrombus generation (TTG, dynes/cm^2—a measure of clot strength).
The volumes of subsequently described plasmatic and other additives summed to a final volume of 360 μL. Samples were composed of 320 μL of plasma; 16.4 μL of PBS, 20 μL of 200 mM CaCl2), and 3.6 μL of PBS, RuCl3, or venom solution mixture, which were pipetted into a disposable cup in a Thrombelastograph® hemostasis system (Model 5000, Haemonetics Inc., Braintree, MA, USA) at 37° C., and then rapidly mixed by moving the cup up against and then away from the plastic pin five times. The PBS, RuCl3, or venom solution mixtures was always the last constituent added prior to mixing and data collection. The following viscoelastic parameters described previously (see, Nielsen, V. G.; et al., Biometals 2016, 29, 913-919; Nielsen, V. G.; Losada, P. A. Basic Clin. Pharmacol. Toxicol. 2017, 120, 207-212; Nielsen, V. G.; Frank, N. J. Thromb. Thrombolysis 2019, 47, 533-539; Nielsen, V. G.; Bazzell, C. M. J. Thromb. Thrombolysis 2017, 43, 203-208; Nielsen, V. G.; Matika, R. W. Hum. Exp. Toxicol. 2017, 36, 727-733; Nielsen, V. G.; et al., Toxins 2018, 10, 322; Nielsen, V. G.; et al., Biometals 2018, 31, 51-59; Nielsen, V. G.; Frank, N. et al., Biometals 2018, 31, 951-959; Nielsen, V. G.; et al., Toxins 2019, 11, 94; Nielsen, V. G.; Frank, N. Hum Exp. Toxicol. 2019, 38, 216-226; Nielsen, V. G. J. Thromb. Thrombolysis 2019, 48, 256-262; Nielsen, V. G.; et al., Blood Coagul. Fibrinolysis 2019, 30, 379-384; Nielsen, V. G. J. Thromb.

For `[C-]#[O+].[C-]#[O+].[C-]#[O+].[C-]#[O+].[C-]#[O+].[C-]#[O+].[Cl][Ru][Cl].[Cl][Ru][Cl]` [CORM-2, tricarbonyldichlororuthenium(II) dimer], the “procoagulant activity of venom” value is listed as “uninhibited” (venom exposed 5 min to 100 μM CORM-2 in 5% human albumin, venom 100 ng/mL in plasma) and “significantly attenuated” (venom exposed 5 min to 100 μM CORM-2 in PBS, venom 100 ng/mL in plasma).

`[Cl][Ru]([Cl])[Cl]` [RuCl3, ruthenium(III) chloride]: the “maximum rate of thrombus generation (MRTG)” value is “significantly decreased; also recorded: decrease”; the “total thrombus generation (TTG), clot strength” value is “enhanced; also recorded: increase”; the “time to maximum rate of thrombus generation (TMRTG)” value is listed as “significantly increased; also recorded: significant increase”. Moreover, the “procoagulant activity of venom” value (venom exposed 5 min to 100 μM RuCl3 in PBS, venom 100 ng/mL in plasma (Example III)) is recorded as “significant loss of procoagulant activity”.

Regarding “Tricarbonylchloro(glycinato)ruthenium [CORM-3]”, the “maximum rate of thrombus generation (MRTG)” value was “significantly decreased; also recorded: decrease”; the “total thrombus generation (TTG), clot strength” value was “enhanced; also recorded: increase”; the “time to maximum rate of thrombus generation (TMRTG)” value is “significantly increased; also recorded: significant increase”.
